Data on 27 molecules can be found in patent US6867198B2, “Agents and methods for the treatment of proliferative diseases” (Eli Lilly and Company, priority 1999, dated 2005).

The target in one assay is T1, cyclin D1-cdk4 (Homo sapiens, UniProt P11802). Kind of assay: Assay of Cyclin D1-cdk4 Kinase Activity with the ING Peptide as Substrate. Format: biochemical. The following applies: ING peptide 200 uM as substrate, 300 uM ATP, 60 minutes at room temperature. The procedure: Assay of Cyclin D1-cdk4 Kinase Activity with the ING Peptide as Substrate
T1 sequence (P11802 whole entry): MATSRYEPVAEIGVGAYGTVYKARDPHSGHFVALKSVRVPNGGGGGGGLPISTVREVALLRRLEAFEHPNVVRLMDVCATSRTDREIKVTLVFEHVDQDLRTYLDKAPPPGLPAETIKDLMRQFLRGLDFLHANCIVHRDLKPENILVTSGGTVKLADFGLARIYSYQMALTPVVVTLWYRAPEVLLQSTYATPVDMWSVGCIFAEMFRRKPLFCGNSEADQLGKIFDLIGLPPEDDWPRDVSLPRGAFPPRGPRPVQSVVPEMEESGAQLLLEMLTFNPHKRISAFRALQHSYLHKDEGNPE
T1 sequence (P24385 whole entry partner): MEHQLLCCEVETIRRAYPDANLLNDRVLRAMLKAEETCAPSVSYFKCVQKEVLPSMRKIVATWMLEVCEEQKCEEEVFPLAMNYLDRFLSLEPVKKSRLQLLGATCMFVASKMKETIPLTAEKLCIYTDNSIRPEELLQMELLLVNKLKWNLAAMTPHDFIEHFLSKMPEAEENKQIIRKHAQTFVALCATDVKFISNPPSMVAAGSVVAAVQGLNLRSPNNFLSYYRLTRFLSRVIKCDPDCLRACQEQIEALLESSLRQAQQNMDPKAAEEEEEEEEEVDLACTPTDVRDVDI
The cyclin D1-cdk4 kinase activity of a compound was assayed by preparing a 100 ul reaction at the following concentrations: 35 mM Hepes pH 7.0, 10 mM MgCl2, 300 uM ATP, 200 uM ING peptide, 1.0 uCi of γ-^33P-ATP, 4.34 ug of cyclin D-cdk4 enzyme, 4% DMSO, and various concentrations of inhibitor. The reaction was incubated at room temperature (about 74° F.) for 60 minutes, and then terminated by the addition of 100 ul of 10% phosphoric acid. Next, the reaction was filtered through a Millipore Multiscreen-PH Plate—Catalog number MAPH NOB 10, and the plate was washed 2 times with 320 ul each of 0.5% phosphoric acid, followed by the addition of 100 ul of scintillation fluid and quantitation on a Packard Instruments, Top Count, scintillation counter.
The term IC50 denotes the concentration needed to halve the response being measured. For `O=C1NC(=O)C(c2cn3c4c(cccc24)CCC3CO)=C1c1c[nH]c2ccccc12` (stereo not drawn), half-maximal inhibition (IC50) was put at 151 nM. Still for that read-out and setting: next, `CN1Cc2cccc3c(C4=C(c5c[nH]c6ccccc56)C(=O)NC4=O)cn(c23)C1`: 455 nM; `O=C1NC(=O)c2c1c1c3ccccc3[nH]c1c1c2c2cccc3c2n1CCC3CO` (stereo not drawn): 64.5 nM. On the same count and under the same terms, the figure for `CC1(C)Cc2cccc3c4c5c(c6c7ccc(CN)cc7[nH]c6c4n(c23)C1)C(=O)NC5=O` [drawing 219] is 173 nM.

The molecule `O=C1NC(=O)c2c1c1c3ccccc3[nH]c1c1c2c2cccc3c2n1CCC3` [drawing 212] came in with a 50% inhibitory concentration (IC50) of 105 nM.

In turn, `O=C1NC(=O)C(c2cn3c4c(cccc24)CCC3)=C1c1c[nH]c2ccccc12` [drawing 222] returned a concentration for half-maximal inhibition (IC50) of 786 nM. Still for that read-out and setting: next, `CC1Cn2c3c(cccc3c3c4c(c5c6ccccc6[nH]c5c32)C(=O)NC4=O)CN1C(=O)[C@H](C)N` (stereo partly drawn) [drawing 217]: 269 nM; `O=C1NC(=O)c2c1c1c3ccc(CN4CCCC4)cc3[nH]c1c1c2c2cccc3c2n1CCC3` [drawing 220]: 51.3 nM; `O=C1NC(=O)C(c2cn3c4c(cccc24)CC(CO)C3)=C1c1c[nH]c2ccccc12` (stereo not drawn) [drawing 223]: 367 nM. Still for that read-out and setting: next, `CC(C)(C)OC[C@H]1Cn2c3c(cccc3c3c4c(c5c6ccccc6[nH]c5c32)C(=O)NC4=O)CN1` [drawing 213]: 116 nM. Still for that read-out and setting: the figure for `O=C1NC(=O)c2c1c1c3ccccc3[nH]c1c1c2c2cccc3c2n1CC(CO)C3` (stereo not drawn) is 127 nM; for `CC1(C)CCn2c3c1cc(F)cc3c1c3c(c4c5ccccc5[nH]c4c12)C(=O)NC3=O` [drawing 218] it is 466 nM; for `CC1(C)CCn2cc(C3=C(c4c[nH]c5ccccc45)C(=O)NC3=O)c3cc(F)cc1c32` it is 1560 nM.

`CC1(C)Cc2cccc3c(C4=C(c5c[nH]c6cc(CN)ccc56)C(=O)NC4=O)cn(c23)C1`: the IC50 was 793 nM. The same measure, in the same setting: next, `CN1Cc2cccc3c4c5c(c6c7ccccc7[nH]c6c4n(c23)C1)C(=O)NC5=O` [drawing 221]: 36.8 nM; `O=C1NC(=O)c2c1c1c3ccccc3[nH]c1c1c2c2cccc3c2n1C(CO)CC3` (stereo not drawn): 78.7 nM.

The next assay deals with T1, cyclin D1-cdk4. Description: Assay of Cyclin D1-cdk4 Kinase Activity with the Rb21 Protein as Substrate. Format: biochemical. The following applies: Rb21 protein 5 ug as substrate, 30 uM ATP, 60 minutes at room temperature. Here is the method:
Assay of Cyclin D1-cdk4 Kinase Activity with the Rb21 Protein as Substrate
The cyclin D1-cdk4 kinase activity of a compound was assayed by preparing a 100 ul reaction at the following concentrations: 20 mM Hepes pH 7.0, 10 mM MgCl2, 30 uM ATP, 5 ug of Rb21 protein (Santa Cruz Biotech, Catalog #sc-4112), 1.0 uCi of γ-^33P-ATP, 1.09 ug of cyclin D-cdk4 enzyme, 4% DMSO, and various concentrations of inhibitor. The reaction was incubated at room temperature (about 74° F.) for 60 minutes, and then terminated by the addition of 100 ul of 25% trichloroacetic acid. Next, the reaction was filtered through a Millipore Multiscreen-FC Plate—Catalog number MAFC NOB 10, and the plate was washed 2 times with 320 ul each of 10% trichloroacetic acid, followed by the addition of 100 ul of scintillation fluid and quantitation on a Packard Instruments, Top Count, scintillation counter.
With `CN1Cc2cccc3c4c5c(c6c7ccccc7[nH]c6c4n(c23)C1)C(=O)NC5=O` [drawing 237], 15.5 nM corresponded to half-maximal inhibition (IC50). On the same count and under the same terms, next, `O=C1NC(=O)C(c2cn3c4c(cccc24)CC(CO)C3)=C1c1c[nH]c2ccccc12` (stereo not drawn) [drawing 239]: 811 nM. Molecule `CC1(C)Cc2cccc3c4c5c(c6c7ccc(CN)cc7[nH]c6c4n(c23)C1)C(=O)NC5=O` [drawing 235] gave an IC50 of 30.1 nM. Regarding `CC1Cn2c3c(cccc3c3c4c(c5c6ccccc6[nH]c5c32)C(=O)NC4=O)CN1C(=O)[C@H](C)N` (stereo partly drawn) [drawing 233], half-maximal inhibition (IC50) required 180 nM. Same read-out and setting: next, `O=C1NC(=O)c2c1c1c3ccc(CN4CCCC4)cc3[nH]c1c1c2c2cccc3c2n1CCC3` [drawing 236]: 11.1 nM; `O=C1NC(=O)C(c2cn3c4c(cccc24)CCC3)=C1c1c[nH]c2ccccc12` [drawing 238]: 709 nM. The same measure, in the same setting: the figure for `O=C1NC(=O)c2c1c1c3ccccc3[nH]c1c1c2c2cccc3c2n1CCC3` [drawing 228] is 65 nM; for `CC(C)(C)OC[C@H]1Cn2c3c(cccc3c3c4c(c5c6ccccc6[nH]c5c32)C(=O)NC4=O)CN1` [drawing 229] it is 66.6 nM; for `CC1(C)CCn2c3c1cc(F)cc3c1c3c(c4c5ccccc5[nH]c4c12)C(=O)NC3=O` [drawing 234] it is 202 nM.

A further assay has as its system HCT-116 or NCI H460 cells. Description: Cell Growth Inhibition Assay (MTT). The following applies: 72 h of drug exposure. The format is cell-based. The procedure: Cell Growth Inhibition Assay
The MTT assay was used to measure growth inhibitory activity (Schultz, R. M., et. al. Oncology Res. 5, 223-228, 1993). […] Basically, 1000 HCT-116 or NCI H460 cells were added per well to 96-well flat-bottom plates in 100-ul RPMI 1640 medium containing 10% dialyzed fetal bovine serum. The plates were incubated for 24 h prior to addition of test compounds. A stock solution (10 mM) was prepared in DMSO and serially diluted in medium. Compound dilutions were added to triplicate wells, and the plates were incubated for 72 hours. […].
On to `O=C1NC(=O)c2c1c1c3ccccc3[nH]c1c1c2c2cccc3c2n1CCC3` [Example 52, 11H, 12H, 14H-pyrrolo[3,4-c]quinolino[8′,8a′,1′:3,2,1]-pyrrolo[2,3-a]carbazole-5,7-dione], for which the cell growth inhibition entry was “inhibit cell growth”.

The next assay has as its system HCT-116 and NCI H460 cell lines. Description: Cell Cycle Analysis Using Flow Cytometry. The format is cell-based. The settings on record: compound at 1×IC50 and 3×IC50, 24 hours, DNA histogram analysis. The procedure:
Cell Cycle Analysis Using Flow Cytometry
The HCT-116 and NCI H460 cell lines were seeded in 75 cm^2 flasks at 5×10^5 cells/25 ml RPMI 1640 medium containing 10% dialyzed fetal bovine serum. They were incubated for 24 hours. Compound is then added at 1×IC50 and 3×IC50 (determined from above section “growth inhibition studies”) and incubated for an additional 24 hours. The cells were subsequently harvested and the protocol (Robinson, J. P. and Darzynkiewicz, Z. Current Protocols in Cytometry. 1997) for staining was followed. DNA histogram analysis was performed using ModFit LT (Verity House).
Background: A flow cytometer gives signals particle by particle.
For the molecule `O=C1NC(=O)c2c1c1c3ccccc3[nH]c1c1c2c2cccc3c2n1CCC3` [Example 52, 11H, 12H, 14H-pyrrolo[3,4-c]quinolino[8′,8a′,1′:3,2,1]-pyrrolo[2,3-a]carbazole-5,7-dione], the cell cycle arrest result is reported as “arrest cells in the G1 phase of the cell cycle”.

In another assay the test system is Ser-780 pRb phosphorylation in HCT116 cells. Description: Inhibition of Rb Phosphorylation Assay. Format: cell-based, Human. The settings on record: compound at 1×, 2× and 3×IC50, 24 hours, immunoblot. Here is the method: Inhibition of Rb Phosphorylation Assay
Human HCT116 colon carcinoma cell line was purchased from American Tissue Culture Collection (Rockville, Md.) and maintained as monolayer in RPMI-1640 with L-Glutamine and 25 mM HEPES supplemented with 10% fetal bovine serum in a 37° C. incubator with a 10% CO2 atmosphere. The detection of mycoplasm in cultured cells was performed using Mycoplasma Rapid Detection System (TaKaRa Shuzo Co. Ltd., Shiga, Japan) every 2-3 months and the cells were found consistently negative throughout these experiments. The Rb phosphorylation assay was done be plating 4×10^5 cells/well in 6-well plates. […] At the end of the incubation period the mediumj was removed and the cells were washed twice with cold PBS containing 1 mM sodium orthovanadate (Na3VO4). […] Protein concentration was determined by the Bio-Rad DC protein assay (Bio-Rad, Hercules, Calif.). […] Proteins were detected by capturing image of the membrane using Quantity One Software on a Fluor-S multi-Imager (Bio-Rad, Hercules, Calif.) in a linear range. Specific bands were quantified using Quantity One Software. […] Results are expressed as a percentage inhibition of Ser-780 pRb phosphorylation in drug treated cells versus control DMSO treated cells.
Background: Immunoblotting shows a protein as a band on a membrane.
For `O=C1NC(=O)c2c1c1c3ccccc3[nH]c1c1c2c2cccc3c2n1CCC3` [Example 52, 11H, 12H, 14H-pyrrolo[3,4-c]quinolino[8′,8a′,1′:3,2,1]-pyrrolo[2,3-a]carbazole-5,7-dione], the “inhibition of Ser-780 pRb phosphorylation” value was “inhibit Rb (retinoblastoma protein) phosphorylation”.

Another assay deals with protein kinase C.
Experiment: not given
The following applies: cited from earlier work.
With `CN1CC[C@H](c2c(O)cc(O)c3c(=O)cc(-c4ccccc4Cl)oc23)[C@H](O)C1` [Flavopiridol], the “concentration inhibiting protein kinase C” value is on record as not below 10 μM/L.

For another assay, the system named is protein kinase A.
Experiment: not given
The following applies: cited from earlier work.
With `CN1CC[C@H](c2c(O)cc(O)c3c(=O)cc(-c4ccccc4Cl)oc23)[C@H](O)C1` [Flavopiridol], the “concentration inhibiting protein kinase A” value is listed as not below 10 μM/L.
